This assay addresses Platelet-activating factor receptor (Oryctolagus cuniculus). Kind of assay: Inhibition of PAF receptor binding to rabbit platelet plasma membranes.

pIC50: −log10 of the molar value.

As usually defined, the pIC50 is the IC50 on a negative log10 scale, so that one unit is a factor of ten. A higher pIC50 goes with a small IC50. Turning to `COc1ccc(C2CC[C@H](c3ccc(OC)c(OC)c3)O2)cc1OC` (some centres not stated), the pIC50 was less than 5.52. Molecule `COc1ccc([C@H]2CC[C@H](c3ccc(OC)c(OC)c3)O2)cc1OC` had a negative-log IC50 (pIC50) of 6.30.

These data come from BindingDB's records for doi:10.1021/jm00160a020 (1986).
